Measured values published in US6780883B2, “Amide inhibitors of microsomal triglyceride transfer protein” (Warner-Lambert Company, priority 1998, dated 2004).

Experiments:
[1] = biological target: apolipoprotein(a), [apo(a)], apolipoproteinB-100, [apoB-100], coupling reaction that generates Lp(a) (Homo sapiens, UniProt P04114+P08519); experiment: LPABC screen: lipoprotein(a) biochemical coupling assay, Lp(a) content by ELISA; details: recombinant apo(a) 17-kringle (293 cell media) + HepG2 conditioned media, 67 minutes, 37° C., 0.3 to 50 μM compound; read-out: Lp ABC IC50
Summary of the method: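 Conditioned medium from 293 cells stably expressing 17-kringle apo(a), diluted 1:3 in PBS and prewarmed 10 min at 37 °C, mixed with compound (added as 0.3–50 μM PBS solution) then 1:3-diluted HepG2 conditioned medium as apoB-100 source. Incubated 67 min at 37 °C; Lp(a) formed quantified by ELISA.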

[2] = test system: Lp(a) production in HepG2^K17 cells; experiment: LPA3 screen: inhibition of Lp(a) production in transfected HepG2 cells, Lp(a) in media by ELISA; type: cell-based; details: Homo sapiens, 8 hours, 0.3 to 50 μM compound, Lp(a) normalized for total protein, read-out: Lp A3 IC50
Summary of the method: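 HepG2 cells stably expressing apo(a) 17-kringle construct, seeded overnight, then exposed to 0.3 to 50 μM compound for 8 h at 37 °C. Lp(a) secreted into media measured by ELISA and normalized to total cellular protein.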

Row | SMILES | IC50 [1] | IC50 [2]
1 | COc1ccc(N(Cc2ccccc2-c2ccccc2)C(=O)c2ccccc2[S+]([O-])C(C)C)cc1 (centres unmarked) [Example 139, N-Biphenyl-2-ylmethyl-N-(4-methoxy-phenyl)-2-(propane-2-sulfinyl)-benzamide] | > 15 µM | 3.5 µM
2 | O=C(c1ccccc1[S+]([O-])c1ccccc1)N(Cc1ccccc1-c1ccccc1)c1ccc(Cl)cc1 (centres unmarked) [Example 140, 2-Benzenesulfinyl-N-biphenyl-2-ylmethyl-N-(4-chloro-phenyl)-benzamide] | > 15 µM | 24.9 µM
3 | CCC[S+]([O-])c1ccccc1C(=O)N(Cc1ccccc1-c1ccccc1)c1ccc(OC)c(OC)c1 (centres unmarked) [Example 141, N-Biphenyl-2-ylmethyl-N-(3,4-dimethoxy-phenyl)-2-(propane-1-sulfinyl)-benzamide] | > 50 µM | 6 µM
4 | COc1ccc(N(Cc2ccccc2-c2ccccc2)C(=O)c2ccccc2[S+]([O-])C(C)C)cc1OC (centres unmarked) [Example 142, N-Biphenyl-2-ylmethyl-N-(3,4-dimethoxy-phenyl)-2-(propane-2-sulfinyl)-benzamide] | > 50 µM | 7 µM
